Patent US11787839B2, “Targeting α2δ-1-bound glutamate receptors for treating diseases and disorders” (Board of Regents, The University of Texas System, priority 2017, dated 2023)

Key:
[1] = test system: presynaptic NMDARs of spinal dorsal horn neurons; assay: Spinal cord slice recordings, morphine-treated WT and Cacna2d1 KO mice; conditions: WT mice
[2] = test system: WT and Cacna2d1 KO mice; assay: Opioid-induced hyperalgesia and analgesic tolerance in WT and Cacna2d1 KO mice
[3] = test system: morphine-treated rats; assay: Opioid-induced hyperalgesia and analgesic tolerance in rats
[4] = test system: rats treated with the Cacna2d1 vector; assay: Withdrawal thresholds in rats overexpressing Cacna2d1 (lentiviral vector); assay type: in vivo, rat; conditions: Cacna2d1 vector rats; AP5, peptide, gabapentin intrathecal; memantine systemic
[5] = target: T1, NMDARs of spinally projecting PVN neurons (Rattus norvegicus, UniProt P35439+Q00959+Q00960); assay: Recordings of spinally projecting PVN neurons in rat brain slices (Ang II); assay type: cell-based; conditions: losartan 2 μmol/L, pregabalin 20 μmol/L, peptides 1 μmol/L
T1 construct: from tissue; host or cells: rat hypothalamic slices containing the PVN (Sprague-Dawley, WKY, SHR) and synaptosomes made from them
Description: Retrograde labeling of spinally projecting PVN neurons: Rats or mice were anesthetized with 2-3% isoflurane, and their spinal cords at the T1-T4 level were exposed through dorsal laminectomy. A fluorescent microsphere suspension (FluoSpheres, 0.04 μm; Molecular Probes, Invitrogen, Eugene, Oreg.) was pressure ejected (Nanoject II Microinjectors, Drummond Scientific Company, Broomall, Pa.) bilaterally into the IML region of the spinal cord in six separate 50-nl injections using a glass micropipette (tip diameter, 20-30 μm). […] The wound was closed with sutures after injection. Animals were returned to their cages for 4-7 days, which was sufficient time to permit the tracer to be retrogradely transported to the PVN. The animals were inspected daily for motor activity, signs of infection, and food and water intake.
Brain slice preparation: Four to seven days after fluorescent tracer injection, the animals were anesthetized with isoflurane and rapidly decapitated. […] Coronal slices (thickness, 300 μm) containing the PVN were cut from the tissue block in the ice-cold aCSF. […] The brain slices were placed in a glass-bottom chamber and continuously perfused with aCSF at 3.0 ml/min at 34° C. maintained by an inline solution heater and temperature controller.
The labeled PVN neurons were briefly identified with the aid of epifluorescence illumination, and whole-cell recordings from labeled PVN neurons were performed under differential interference contrast optics on an upright microscope (BX50 WI; Olympus Optical, Tokyo, Japan). Recordings of postsynaptic currents began 5 min after the whole-cell access was established and the current reached a steady state.
Signals were processed with an […] amplifier (Axon Instruments, Foster City, Calif.). A liquid junction potential of 15 mV (for the potassium gluconate pipette solution) was corrected during off-line analysis.
Postsynaptic NMDAR currents were elicited by puff application of 100 μmol/L NMDA to the recorded neuron using a positive pressure system (4 p.s.i., 50 ms; Toohey Company, Fairfield, N.J.). The tip of the puff pipette was placed 150 μm from the recorded neuron. […] The NMDAR current data presented in the manuscript were the average of 3 consecutive currents elicited by repeated puff NMDA. The neuron was discarded if the current was not stable.
Ang II, losartan, and NMDA were obtained from Sigma (St. Louis, Mo.). The α2δ-1Tat peptide and scrambled control peptide were synthesized by Bio Basic Inc. (Markham, Ontario, Canada) and validated by liquid chromatography and mass spectrometry. […] All drugs were prepared immediately before the experiments and applied to the slice chamber. The brain slices were first pretreated with Ang II, losartan, α2δ-1Tat peptide, or control peptide in the slice incubation chamber before recording. For electrophysiological recording, the treatment agents were immediately removed and the brain slice transferred to a separate recording chamber.

[6] = test system: paclitaxel-treated rats; assay: Paclitaxel-induced pain hypersensitivity in rats; assay type: in vivo, rat; conditions: intrathecal 5 μg pregabalin, 1 μg peptides
Protocol: To induce neuropathic pain, rats and mice were intraperitoneally injected with paclitaxel (2 mg/kg; TEVA Pharmaceuticals, North Wales, Pa.) every 2 days for a total of 4 injections (days 1, 3, 5 and 7; total dose, 8 mg/kg), as described previously (Polomano et al., 2001). Animals in the control group were intraperitoneally injected with the vehicle (Cremophor EL/ethanol, 1:1) on the same 4 days. The presence of tactile allodynia was confirmed 10 to 12 days after drug treatment. Intrathecal catheters were implanted in some paclitaxel-treated rats during isoflurane-induced anesthesia. Briefly, a small puncture was made in the atlanto-occipital membrane of the cisterna magna and inserted a PE-10 catheter with the caudal tip reaching the lumbar enlargement of the spinal cord (Chen et al., 2014a; Xie et al., 2016).
Behavioral assessment of nociception: To measure tactile allodynia, mice or rats were individually placed on a mesh floor within a suspended chamber. […]
To quantify the mechanical nociceptive threshold in rats, the paw pressure (Randall-Selitto) test was conducted on the left hindpaw using an analgesiometer (Ugo Basile, Varese, Italy). […] When the rat withdrew its paw or vocalized, the pedal was immediately released, and the withdrawal threshold was recorded (Chen et al., 2014a). […]
To assess the thermal sensitivity of rats, the were placed individually on the glass surface of a thermal testing apparatus (IITC Life Sciences, Woodland Hills, Calif.). […] The paw withdrawal latency was recorded with a timer, and the hindpaw was tested twice to obtain an average time. […] After the threshold temperature was recorded, the mice were immediately removed from the plate. The heat threshold measurement was repeated 30 min later, and the average of the 2 recorded temperatures was considered as the heat threshold. The cold threshold was measured by cooling the plate from 30° C. at a rate of 6° C./min until nocifensive behaviors were observed. […]

[7] = target: presynaptic NMDARs of spinal lamina II neurons (Rattus norvegicus, UniProt P35439+Q00959+Q00960)
[8] = WT mice, morphine 10 mg/kg twice a day, 8 days
[9] = daily morphine in vehicle- or control peptide-treated rats
[10] = paclitaxel-treated rats, AP5 50 μM, pregabalin 20 μM, peptides 1 μM
[11] = vehicle-treated rats, AP5 50 μM, pregabalin 20 μM, peptides 1 μM

Sequence of presynaptic NMDARs of spinal lamina II neurons (Q00959 20-1464 limits assumed, other chains not shown): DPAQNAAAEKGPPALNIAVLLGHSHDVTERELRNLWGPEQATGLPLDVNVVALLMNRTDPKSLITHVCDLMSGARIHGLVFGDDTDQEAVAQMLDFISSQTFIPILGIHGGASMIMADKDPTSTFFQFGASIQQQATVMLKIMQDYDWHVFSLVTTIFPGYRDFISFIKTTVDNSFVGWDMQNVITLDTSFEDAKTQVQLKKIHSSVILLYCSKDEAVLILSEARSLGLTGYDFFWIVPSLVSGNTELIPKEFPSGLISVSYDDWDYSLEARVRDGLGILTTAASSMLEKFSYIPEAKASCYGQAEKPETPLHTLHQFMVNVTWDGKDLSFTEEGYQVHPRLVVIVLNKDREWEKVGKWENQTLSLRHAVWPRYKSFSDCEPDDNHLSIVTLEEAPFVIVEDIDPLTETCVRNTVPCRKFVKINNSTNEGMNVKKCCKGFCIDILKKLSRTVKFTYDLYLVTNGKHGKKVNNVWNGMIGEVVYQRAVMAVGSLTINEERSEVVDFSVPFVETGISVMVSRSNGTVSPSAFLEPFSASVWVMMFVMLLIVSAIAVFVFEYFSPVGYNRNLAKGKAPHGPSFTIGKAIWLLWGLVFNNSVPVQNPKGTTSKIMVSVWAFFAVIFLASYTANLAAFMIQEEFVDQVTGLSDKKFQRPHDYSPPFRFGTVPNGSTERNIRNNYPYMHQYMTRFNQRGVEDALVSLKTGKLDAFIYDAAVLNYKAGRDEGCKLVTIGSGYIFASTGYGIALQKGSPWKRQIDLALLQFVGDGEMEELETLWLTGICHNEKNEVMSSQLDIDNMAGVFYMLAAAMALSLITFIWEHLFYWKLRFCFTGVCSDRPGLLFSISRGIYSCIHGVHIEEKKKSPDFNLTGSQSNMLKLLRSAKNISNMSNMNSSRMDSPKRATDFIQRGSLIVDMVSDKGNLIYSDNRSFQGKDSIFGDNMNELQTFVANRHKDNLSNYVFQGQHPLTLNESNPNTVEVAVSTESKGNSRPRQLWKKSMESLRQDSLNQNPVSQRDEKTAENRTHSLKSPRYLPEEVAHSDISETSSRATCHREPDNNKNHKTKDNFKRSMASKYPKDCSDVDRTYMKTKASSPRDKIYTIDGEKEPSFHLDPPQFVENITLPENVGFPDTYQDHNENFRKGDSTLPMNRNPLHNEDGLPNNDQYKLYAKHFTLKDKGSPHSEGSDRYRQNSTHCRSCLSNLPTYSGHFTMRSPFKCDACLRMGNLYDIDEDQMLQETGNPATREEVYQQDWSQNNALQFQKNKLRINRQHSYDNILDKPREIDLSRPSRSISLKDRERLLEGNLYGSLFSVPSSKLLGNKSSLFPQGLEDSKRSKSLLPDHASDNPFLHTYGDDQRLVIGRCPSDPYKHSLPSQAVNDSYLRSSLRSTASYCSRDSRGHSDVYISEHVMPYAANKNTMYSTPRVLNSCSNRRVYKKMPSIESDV
Sequence of presynaptic NMDARs of spinal lamina II neurons (Q00960 27-1482, other chains not shown): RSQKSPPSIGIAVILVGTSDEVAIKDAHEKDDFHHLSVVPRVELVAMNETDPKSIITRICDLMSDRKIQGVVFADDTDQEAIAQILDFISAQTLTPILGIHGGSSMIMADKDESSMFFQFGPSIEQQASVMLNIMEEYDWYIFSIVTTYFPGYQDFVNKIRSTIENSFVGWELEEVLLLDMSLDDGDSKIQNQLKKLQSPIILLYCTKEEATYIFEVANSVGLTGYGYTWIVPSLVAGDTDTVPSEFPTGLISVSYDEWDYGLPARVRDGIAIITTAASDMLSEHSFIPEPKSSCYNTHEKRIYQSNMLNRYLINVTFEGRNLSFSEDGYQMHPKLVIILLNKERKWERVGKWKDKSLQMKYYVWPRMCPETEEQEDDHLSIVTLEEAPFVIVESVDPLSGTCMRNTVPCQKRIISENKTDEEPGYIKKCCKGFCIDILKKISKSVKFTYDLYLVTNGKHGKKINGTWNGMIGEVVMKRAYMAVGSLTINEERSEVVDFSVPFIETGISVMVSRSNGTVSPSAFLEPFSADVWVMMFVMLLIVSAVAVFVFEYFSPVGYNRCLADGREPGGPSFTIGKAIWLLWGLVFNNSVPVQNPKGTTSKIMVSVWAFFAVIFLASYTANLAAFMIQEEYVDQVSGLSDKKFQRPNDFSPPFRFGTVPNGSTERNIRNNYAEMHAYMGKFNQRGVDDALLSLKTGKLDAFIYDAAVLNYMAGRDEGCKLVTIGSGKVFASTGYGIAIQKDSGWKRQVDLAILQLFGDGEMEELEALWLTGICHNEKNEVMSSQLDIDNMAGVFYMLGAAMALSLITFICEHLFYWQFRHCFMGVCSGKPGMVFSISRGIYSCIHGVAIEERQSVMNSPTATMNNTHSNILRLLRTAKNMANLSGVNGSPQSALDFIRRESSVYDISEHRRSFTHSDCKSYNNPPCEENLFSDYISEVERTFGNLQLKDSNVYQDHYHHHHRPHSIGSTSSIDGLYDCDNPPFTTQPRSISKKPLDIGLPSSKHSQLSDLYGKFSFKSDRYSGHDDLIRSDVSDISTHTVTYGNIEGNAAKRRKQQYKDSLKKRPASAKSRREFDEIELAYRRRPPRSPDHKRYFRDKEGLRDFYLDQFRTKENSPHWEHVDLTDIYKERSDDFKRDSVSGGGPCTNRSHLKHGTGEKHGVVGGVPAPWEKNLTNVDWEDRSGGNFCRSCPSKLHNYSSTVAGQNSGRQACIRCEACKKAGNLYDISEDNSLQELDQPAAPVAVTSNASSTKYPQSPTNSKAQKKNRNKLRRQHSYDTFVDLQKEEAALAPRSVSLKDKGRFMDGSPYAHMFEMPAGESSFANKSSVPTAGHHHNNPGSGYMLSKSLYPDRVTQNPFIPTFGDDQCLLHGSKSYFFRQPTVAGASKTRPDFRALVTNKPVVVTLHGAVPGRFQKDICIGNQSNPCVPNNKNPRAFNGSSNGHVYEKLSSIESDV

## CN1CC[C@]23c4c5ccc(O)c4O[C@H]2[C@@H](O)C=C[C@H]3[C@H]1C5.O=S(=O)(O)O [morphine, morphine sulfate]
[1]; chronic morphine
  amplitude of monosynaptic EPSCs evoked from the dorsal root: markedly increased
[1]; morphine 10 mg/kg twice a day for 8 day
  NMDAR-mediated frequency of mEPSCs of spinal dorsal horn neurons: significantly increased
[2]; Cacna2d1 KO mice
  anti-nociceptive effect of morphine at the end of 8-day treatment: largely preserved
[2]; Cacna2d1 KO mice, daily morphine
  baseline withdrawal threshold: did not significantly affect
[2]; [8]
  anti-nociceptive effect of morphine: diminished
  baseline withdrawal thresholds to noxious pressure and heat: gradually reduced
[3]; by day 6, vehicle- or control peptide-treated rats
  effect of 5 mg/kg morphine on the withdrawal thresholds: failed to produce a significant effect
[3]; [9]
  anti-nociceptive effect of morphine: gradual decrease
  baseline withdrawal thresholds (mechanical and thermal hyperalgesia): gradual reduction

## CC12CC3CC(C)(C1)CC(N)(C3)C2 [memantine]
[4]
  pain hypersensitivity induced by Cacna2d1 overexpression (tactile and pressure withdrawal thresholds): readily reversed

## CCCCc1nc(Cl)c(CO)n1Cc1ccc(-c2ccccc2-c2nn[nH]n2)cc1 [losartan]
[5]
  effect of Ang II on mEPSC frequency in pretreated slices: completely blocked
[5]; 30 min
  effect of Ang II on puff NMDA currents in pretreated slices: abolished

## CC(C)C[C@H](CN)CC(=O)O [pregabalin]
[6]
  paclitaxel-induced pain hypersensitivity (tactile allodynia, mechanical and thermal hyperalgesia): readily reversed
[7]; paclitaxel-treated rats
  reduced PPR of evoked EPSCs: completely normalized
[7]; [10]
  increased amplitude of evoked monosynaptic EPSCs: returned the amplitude of evoked monosynaptic EPSCs of lamina II neurons to the baseline level
  increased frequency of mEPSCs of lamina II neurons: completely normalized
[7]; vehicle-treated rats
  PPR of evoked EPSCs: had no effect
[7]; [11]
  amplitude of evoked monosynaptic EPSCs: had no effect
  frequency of mEPSCs of lamina II neurons: had no effect
